Results published in publication PMC9851200, “Multiparameter phenotypic screening for endogenous TFEB and TFE3 translocation identifies novel chemical series modulating lysosome function” (Autophagy, 2022).

How the values were obtained:
Type in all cases: binding
[1] = biological target: kinases (KINOMEscan panel) (Homo sapiens, UniProt P53671); settings: LIMK2; NEW KINOMEscan
[2] = biological target: kinases (KINOMEscan panel) (Homo sapiens, UniProt Q9H4B4); settings: kinase PLK3; NEW KINOMEscan
[3] = biological target: T1, kinases (KINOMEscan panel) (Homo sapiens, UniProt Q8NE63); settings: kinase HIPK4; NEW KINOMEscan
T1 sequence (Q8NE63 1-616): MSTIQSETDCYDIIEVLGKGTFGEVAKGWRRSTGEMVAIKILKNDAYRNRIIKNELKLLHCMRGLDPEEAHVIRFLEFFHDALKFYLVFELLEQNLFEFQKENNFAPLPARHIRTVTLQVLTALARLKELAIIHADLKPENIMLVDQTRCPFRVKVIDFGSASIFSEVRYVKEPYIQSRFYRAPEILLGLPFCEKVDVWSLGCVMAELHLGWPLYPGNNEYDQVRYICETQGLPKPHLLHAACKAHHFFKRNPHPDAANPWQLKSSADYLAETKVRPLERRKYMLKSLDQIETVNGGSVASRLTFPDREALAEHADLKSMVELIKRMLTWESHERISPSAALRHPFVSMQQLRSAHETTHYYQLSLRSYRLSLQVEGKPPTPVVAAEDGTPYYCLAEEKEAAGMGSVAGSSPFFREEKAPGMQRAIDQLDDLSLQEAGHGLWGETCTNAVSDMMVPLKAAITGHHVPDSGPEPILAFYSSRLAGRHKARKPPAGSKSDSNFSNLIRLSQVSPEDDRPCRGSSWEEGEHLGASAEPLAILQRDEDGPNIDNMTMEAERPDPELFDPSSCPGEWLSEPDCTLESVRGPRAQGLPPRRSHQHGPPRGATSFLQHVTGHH

[4] = biological target: kinases (KINOMEscan panel) (Homo sapiens, UniProt P51957); settings: kinase NEK4; NEW KINOMEscan
[5] = biological target: T2, kinases (KINOMEscan panel) (Homo sapiens, UniProt P29323); settings: EPHB2; NEW KINOMEscan
T2 sequence (P29323 19-1055): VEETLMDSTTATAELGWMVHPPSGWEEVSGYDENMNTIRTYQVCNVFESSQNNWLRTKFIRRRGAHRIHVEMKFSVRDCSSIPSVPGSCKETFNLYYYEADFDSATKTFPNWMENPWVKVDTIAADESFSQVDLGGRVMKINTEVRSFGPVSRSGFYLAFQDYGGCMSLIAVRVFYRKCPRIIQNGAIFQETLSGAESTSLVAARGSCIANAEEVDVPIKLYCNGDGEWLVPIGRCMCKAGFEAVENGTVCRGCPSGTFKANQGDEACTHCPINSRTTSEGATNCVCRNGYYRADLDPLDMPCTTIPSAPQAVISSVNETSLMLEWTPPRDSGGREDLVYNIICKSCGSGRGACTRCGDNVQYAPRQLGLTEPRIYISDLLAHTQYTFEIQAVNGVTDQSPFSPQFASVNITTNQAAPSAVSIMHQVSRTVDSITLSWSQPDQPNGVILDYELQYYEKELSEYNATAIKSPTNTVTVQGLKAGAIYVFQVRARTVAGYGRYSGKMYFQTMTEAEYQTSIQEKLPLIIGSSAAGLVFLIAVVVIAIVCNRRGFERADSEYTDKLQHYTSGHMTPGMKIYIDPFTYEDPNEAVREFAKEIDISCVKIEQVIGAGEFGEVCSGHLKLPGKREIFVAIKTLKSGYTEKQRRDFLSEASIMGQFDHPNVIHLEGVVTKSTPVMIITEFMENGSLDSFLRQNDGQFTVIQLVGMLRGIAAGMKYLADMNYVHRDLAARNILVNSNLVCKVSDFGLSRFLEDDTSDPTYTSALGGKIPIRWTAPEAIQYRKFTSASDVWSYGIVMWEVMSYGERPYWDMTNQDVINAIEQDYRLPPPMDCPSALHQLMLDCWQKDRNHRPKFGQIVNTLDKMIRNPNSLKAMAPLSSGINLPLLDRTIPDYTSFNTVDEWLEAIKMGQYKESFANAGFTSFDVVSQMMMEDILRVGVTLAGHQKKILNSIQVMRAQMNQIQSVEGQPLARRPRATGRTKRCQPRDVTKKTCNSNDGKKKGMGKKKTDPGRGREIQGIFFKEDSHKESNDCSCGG

[6] = biological target: kinases (KINOMEscan panel) (Homo sapiens, UniProt P00519); settings: NEW KINOMEscan
[7] = biological target: kinases (KINOMEscan panel) (Homo sapiens, UniProt Q9BX84); settings: TRPM6; NEW KINOMEscan
[8] = biological target: T3, kinases (KINOMEscan panel) (Homo sapiens, UniProt Q8TBX8); settings: PIP4K2C; NEW KINOMEscan
T3 sequence (Q8TBX8 1-421): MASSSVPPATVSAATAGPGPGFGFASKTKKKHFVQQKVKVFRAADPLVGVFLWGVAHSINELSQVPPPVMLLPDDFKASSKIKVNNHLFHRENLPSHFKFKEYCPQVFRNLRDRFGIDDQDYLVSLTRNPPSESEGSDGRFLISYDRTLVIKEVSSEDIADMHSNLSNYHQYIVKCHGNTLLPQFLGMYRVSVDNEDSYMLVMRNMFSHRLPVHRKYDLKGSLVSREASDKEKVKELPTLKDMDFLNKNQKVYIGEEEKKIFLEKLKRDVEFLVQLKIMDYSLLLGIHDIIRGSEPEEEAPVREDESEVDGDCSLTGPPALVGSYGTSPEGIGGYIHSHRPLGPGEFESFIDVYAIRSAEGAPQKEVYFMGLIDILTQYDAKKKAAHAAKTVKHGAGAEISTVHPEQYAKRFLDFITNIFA

[9] = biological target: kinases (KINOMEscan panel) (Homo sapiens, UniProt Q9Y2H9); settings: MAST1; NEW KINOMEscan

Sequence of kinases (KINOMEscan panel) (Homo sapiens, UniProt P00519) (P00519 whole entry): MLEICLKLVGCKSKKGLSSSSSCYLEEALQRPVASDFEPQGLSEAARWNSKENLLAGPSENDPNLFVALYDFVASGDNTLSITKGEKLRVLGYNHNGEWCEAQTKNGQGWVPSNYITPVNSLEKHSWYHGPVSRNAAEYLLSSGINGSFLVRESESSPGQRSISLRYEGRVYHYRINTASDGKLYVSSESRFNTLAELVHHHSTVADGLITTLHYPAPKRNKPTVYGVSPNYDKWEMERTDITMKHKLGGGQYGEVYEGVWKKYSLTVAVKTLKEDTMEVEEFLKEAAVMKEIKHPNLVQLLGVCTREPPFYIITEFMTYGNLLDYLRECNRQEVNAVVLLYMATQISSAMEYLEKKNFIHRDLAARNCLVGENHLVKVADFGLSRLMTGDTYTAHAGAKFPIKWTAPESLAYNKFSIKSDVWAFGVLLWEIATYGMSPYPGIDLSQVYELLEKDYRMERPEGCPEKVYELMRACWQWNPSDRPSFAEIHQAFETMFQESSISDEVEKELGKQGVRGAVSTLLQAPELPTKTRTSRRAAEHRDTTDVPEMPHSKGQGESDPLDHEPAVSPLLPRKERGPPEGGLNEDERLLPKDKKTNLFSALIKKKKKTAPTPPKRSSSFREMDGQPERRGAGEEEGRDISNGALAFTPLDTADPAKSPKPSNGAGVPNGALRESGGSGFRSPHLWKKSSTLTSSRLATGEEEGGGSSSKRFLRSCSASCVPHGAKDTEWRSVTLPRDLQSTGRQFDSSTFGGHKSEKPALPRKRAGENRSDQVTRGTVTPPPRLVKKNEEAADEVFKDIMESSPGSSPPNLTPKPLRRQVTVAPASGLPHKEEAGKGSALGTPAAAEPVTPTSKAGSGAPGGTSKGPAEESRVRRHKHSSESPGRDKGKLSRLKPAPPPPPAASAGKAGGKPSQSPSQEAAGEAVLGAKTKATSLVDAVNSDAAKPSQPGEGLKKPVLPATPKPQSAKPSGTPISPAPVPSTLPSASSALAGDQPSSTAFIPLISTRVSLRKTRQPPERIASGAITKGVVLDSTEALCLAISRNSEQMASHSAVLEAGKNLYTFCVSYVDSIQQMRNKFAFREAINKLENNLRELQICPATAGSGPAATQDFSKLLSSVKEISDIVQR
Sequence of kinases (KINOMEscan panel) (Homo sapiens, UniProt P51957) (P51957 whole entry): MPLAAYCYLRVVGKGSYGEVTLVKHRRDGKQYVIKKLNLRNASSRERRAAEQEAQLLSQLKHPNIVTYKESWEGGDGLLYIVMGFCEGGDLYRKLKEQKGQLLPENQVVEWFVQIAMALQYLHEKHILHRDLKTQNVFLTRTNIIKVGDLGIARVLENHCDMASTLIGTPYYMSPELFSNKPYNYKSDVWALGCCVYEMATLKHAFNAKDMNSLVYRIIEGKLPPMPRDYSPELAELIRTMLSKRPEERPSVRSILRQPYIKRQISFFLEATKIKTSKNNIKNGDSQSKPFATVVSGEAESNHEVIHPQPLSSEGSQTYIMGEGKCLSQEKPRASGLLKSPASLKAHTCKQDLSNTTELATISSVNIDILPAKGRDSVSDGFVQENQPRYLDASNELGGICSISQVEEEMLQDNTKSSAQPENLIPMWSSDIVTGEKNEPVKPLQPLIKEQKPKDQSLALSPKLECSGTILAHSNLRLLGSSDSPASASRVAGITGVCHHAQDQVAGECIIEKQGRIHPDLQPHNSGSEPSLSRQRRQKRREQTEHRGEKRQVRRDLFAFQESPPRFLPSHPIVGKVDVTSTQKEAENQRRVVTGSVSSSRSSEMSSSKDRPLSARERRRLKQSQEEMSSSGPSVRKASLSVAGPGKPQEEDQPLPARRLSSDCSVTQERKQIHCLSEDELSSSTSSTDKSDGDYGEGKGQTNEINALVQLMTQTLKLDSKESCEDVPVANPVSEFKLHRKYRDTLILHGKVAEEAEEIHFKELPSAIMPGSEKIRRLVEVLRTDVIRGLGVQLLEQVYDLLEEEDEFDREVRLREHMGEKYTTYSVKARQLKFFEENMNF
Sequence of kinases (KINOMEscan panel) (Homo sapiens, UniProt Q9BX84) (Q9BX84 whole entry): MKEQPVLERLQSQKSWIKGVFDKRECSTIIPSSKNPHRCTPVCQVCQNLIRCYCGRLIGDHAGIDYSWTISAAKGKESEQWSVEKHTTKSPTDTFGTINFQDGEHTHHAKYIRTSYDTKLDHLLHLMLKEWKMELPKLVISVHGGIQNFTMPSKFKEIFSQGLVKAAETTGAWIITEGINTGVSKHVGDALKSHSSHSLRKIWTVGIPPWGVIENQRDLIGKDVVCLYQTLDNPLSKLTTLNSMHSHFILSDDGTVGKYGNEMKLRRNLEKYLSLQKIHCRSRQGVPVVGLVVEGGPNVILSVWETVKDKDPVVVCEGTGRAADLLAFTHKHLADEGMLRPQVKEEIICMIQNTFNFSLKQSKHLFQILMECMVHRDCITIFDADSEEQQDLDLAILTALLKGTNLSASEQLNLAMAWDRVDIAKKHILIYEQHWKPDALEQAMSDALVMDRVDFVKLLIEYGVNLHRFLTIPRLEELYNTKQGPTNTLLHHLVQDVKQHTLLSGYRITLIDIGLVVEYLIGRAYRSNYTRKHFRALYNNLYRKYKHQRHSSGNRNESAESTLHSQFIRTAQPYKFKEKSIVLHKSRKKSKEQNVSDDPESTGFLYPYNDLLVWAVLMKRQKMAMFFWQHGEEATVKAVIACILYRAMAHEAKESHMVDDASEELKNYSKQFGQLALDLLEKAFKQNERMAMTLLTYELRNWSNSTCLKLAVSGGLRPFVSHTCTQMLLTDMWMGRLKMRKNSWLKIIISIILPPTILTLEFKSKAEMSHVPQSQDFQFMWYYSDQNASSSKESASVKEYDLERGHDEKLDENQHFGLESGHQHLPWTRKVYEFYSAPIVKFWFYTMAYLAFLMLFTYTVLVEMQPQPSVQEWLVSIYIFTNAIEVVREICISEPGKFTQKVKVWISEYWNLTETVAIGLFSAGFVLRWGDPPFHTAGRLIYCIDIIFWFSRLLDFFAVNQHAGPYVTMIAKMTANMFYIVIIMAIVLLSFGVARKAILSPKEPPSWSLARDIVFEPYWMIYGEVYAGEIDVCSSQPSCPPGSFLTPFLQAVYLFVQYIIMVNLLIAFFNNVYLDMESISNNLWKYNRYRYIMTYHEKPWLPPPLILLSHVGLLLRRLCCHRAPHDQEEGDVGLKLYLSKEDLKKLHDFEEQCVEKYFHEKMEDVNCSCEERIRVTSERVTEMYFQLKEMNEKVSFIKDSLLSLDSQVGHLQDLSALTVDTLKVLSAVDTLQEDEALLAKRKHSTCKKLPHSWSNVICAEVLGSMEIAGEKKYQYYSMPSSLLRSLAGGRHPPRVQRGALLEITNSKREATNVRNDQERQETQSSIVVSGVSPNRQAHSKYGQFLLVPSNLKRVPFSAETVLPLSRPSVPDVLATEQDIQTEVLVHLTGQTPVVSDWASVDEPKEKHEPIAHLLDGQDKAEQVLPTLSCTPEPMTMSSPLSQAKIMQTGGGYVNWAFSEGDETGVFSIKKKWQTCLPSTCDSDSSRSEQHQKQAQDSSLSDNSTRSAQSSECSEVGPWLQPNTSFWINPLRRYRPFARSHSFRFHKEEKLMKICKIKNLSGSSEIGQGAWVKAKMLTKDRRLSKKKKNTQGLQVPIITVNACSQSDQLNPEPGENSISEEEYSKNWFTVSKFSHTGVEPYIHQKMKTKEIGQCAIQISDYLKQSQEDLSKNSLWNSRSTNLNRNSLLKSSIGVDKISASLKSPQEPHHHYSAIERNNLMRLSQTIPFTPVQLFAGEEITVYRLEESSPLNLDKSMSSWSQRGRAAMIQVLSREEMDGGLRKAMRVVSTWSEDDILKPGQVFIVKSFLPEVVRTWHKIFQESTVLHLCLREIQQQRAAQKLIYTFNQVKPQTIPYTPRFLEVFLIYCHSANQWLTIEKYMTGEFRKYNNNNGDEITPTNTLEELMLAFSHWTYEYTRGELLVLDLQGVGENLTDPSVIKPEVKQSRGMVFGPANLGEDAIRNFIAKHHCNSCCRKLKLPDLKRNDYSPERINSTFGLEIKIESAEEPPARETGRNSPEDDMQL
Sequence of kinases (KINOMEscan panel) (Homo sapiens, UniProt P53671) (P53671 whole entry): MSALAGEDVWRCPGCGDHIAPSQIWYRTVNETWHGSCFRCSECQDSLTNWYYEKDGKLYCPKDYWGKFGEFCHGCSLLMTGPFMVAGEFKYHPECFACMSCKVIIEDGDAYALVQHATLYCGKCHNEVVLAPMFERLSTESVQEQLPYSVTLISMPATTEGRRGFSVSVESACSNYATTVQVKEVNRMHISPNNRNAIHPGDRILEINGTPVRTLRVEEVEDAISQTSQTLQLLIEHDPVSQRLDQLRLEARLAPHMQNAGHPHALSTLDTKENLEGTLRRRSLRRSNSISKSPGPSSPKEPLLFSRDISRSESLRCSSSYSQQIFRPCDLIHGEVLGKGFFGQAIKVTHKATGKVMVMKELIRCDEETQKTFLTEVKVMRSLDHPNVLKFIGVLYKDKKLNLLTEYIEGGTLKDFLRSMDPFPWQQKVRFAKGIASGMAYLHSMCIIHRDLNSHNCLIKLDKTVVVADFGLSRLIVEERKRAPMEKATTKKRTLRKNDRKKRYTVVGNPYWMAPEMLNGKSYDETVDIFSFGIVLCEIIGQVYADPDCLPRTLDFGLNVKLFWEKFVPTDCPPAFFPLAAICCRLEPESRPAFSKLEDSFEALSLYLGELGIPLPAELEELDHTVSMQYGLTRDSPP

Row | SMILES | KINOMEscan LIMK2 [1] | KINOMEscan PLK3 [2] | KINOMEscan HIPK4 [3] | KINOMEscan NEK4 [4] | KINOMEscan EPHB2 [5] | KINOMEscan ABL1-nonphosphorylated [6] | KINOMEscan ABL1-phosphorylated [6] | KINOMEscan TRPM6 [7] | KINOMEscan PIP4K2C [8] | KINOMEscan MAST1 [9]
1 | Cc1cccc(-c2nc(N(C)c3ccc4ncsc4c3)c3ccccc3n2)n1 [NK-161] | 9 | 13 | 25 | 5 | 15 | 0 | 29 | 0 | 0 | 0
2 | Cc1cccc(-c2nc(Nc3ccc4nn(C)cc4c3)c3ccccc3n2)n1 [NK167] | 3 | 16 | 7 | 0 | 12 | 0 | 41 | 0 | 0 | 0
